Active and inactive are the calls of the source. The calls are words filed in the database; no cut-off is given here.
Legend:
[1] = tested on: NCI-H292; experiment: Antiinflammatory activity against PMA-stimulated human NCI-H292 cells assessed as reduction in IL-8 secretion at 1 uM incubated for 24 hrs by ELISA; format: functional, cell-based
[2] = tested on: NCI-H292; experiment: Antiinflammatory activity against PMA-stimulated human NCI-H292 cells assessed as reduction in MUC5AC secretion at 1 uM incubated for 24 hrs by ELISA; format: functional, cell-based
[3] = tested on: NCI-H292; experiment: Cytotoxicity against human NCI-H292 cells assessed as redcution in cell viability at 0.25 to 1 uM incubated for 24 hrs in presence of PMA by CCK-8 assay; format: toxicity, cell-based; details: nci-h292, 24 h, dose 0.25-1 µM

Compound | Activity [1] | Activity [2] | Activity [3]
O=C1C[C@@H](c2ccc(O)cc2)Oc2cc(Oc3ccc([C@@H]4[C@@H](C(=O)c5ccc(O)cc5O)[C@H](C(=O)c5ccc(O)cc5O)[C@H]4c4ccc(O)cc4)cc3O)ccc21 | Active | Active | 
O=C(/C=C/c1ccc(O)cc1)c1ccc2c(c1O)[C@H](C(=O)c1ccc(O)cc1O)[C@@H](c1ccc(O)cc1)O2 | Active | Active | 
O=C(/C=C/c1ccc(Oc2ccc([C@@H]3[C@@H](C(=O)c4ccc(O)cc4O)[C@H](C(=O)c4ccc(O)cc4O)[C@H]3c3ccc(O)cc3)cc2O)cc1)c1ccc(O)cc1O | Active; Effectively Inhibited The Secretion | Active; Effectively Inhibited The Secretion | 
O=C(/C=C/c1ccc(Oc2cc(C(=O)/C=C/c3ccc(O)cc3)c(O)cc2O)cc1)c1ccc(O)cc1O | Active; Effectively Inhibited The Secretion | Active; Effectively Inhibited The Secretion | 
O=C(/C=C/c1ccc(Oc2c(O)ccc(C(=O)/C=C/c3ccc(O)cc3)c2O)cc1)c1ccc(O)cc1 | inactive | Active | 
O=C(/C=C/c1ccc(Oc2ccc([C@H]3Oc4cc(O)ccc4C(=O)[C@@H]3[C@@H]3C(=O)c4ccc(O)cc4O[C@H]3c3ccc(O)c(O)c3)cc2)cc1)c1ccc(O)cc1O |  |  | Toxic
O=C(/C=C/c1ccc(Oc2ccc(/C=C/C(=O)c3ccc(O)cc3O)cc2O)cc1)c1ccc(O)cc1O | Active; Effectively Inhibited The Secretion | Active; Effectively Inhibited The Secretion | 
O=C(/C=C/c1ccc(O)c(-c2cc(C(=O)/C=C/c3ccc(O)cc3)c(O)cc2O)c1)c1ccc(O)cc1O | Active | Active | 

From ChEMBL document CHEMBL6153121, “Anti-Inflammatory Dimeric and Trimeric Flavonoids from the Roots ofPistacia weinmannifolia” (J Nat Prod, 2025)
